{
  "source": "paper PMC9954146",
  "about": "“Anti-Leukaemic Activity of Rilpivirine Is Mediated by Aurora A Kinase Inhibition” (Cancers, 2023)",
  "experiment_in_all_cases": "Kinase panel",
  "type_in_all_cases": "biochemical",
  "details_in_all_cases": "read-out: % Residual Activity",
  "key": {"ALK4(h)": {"target": "T1, ALK4(h) (Homo sapiens, UniProt P36896)", "T1 construct": "purchased Eurofins (KinaseProfiler)", "T1 sequence (P36896 24-505)": "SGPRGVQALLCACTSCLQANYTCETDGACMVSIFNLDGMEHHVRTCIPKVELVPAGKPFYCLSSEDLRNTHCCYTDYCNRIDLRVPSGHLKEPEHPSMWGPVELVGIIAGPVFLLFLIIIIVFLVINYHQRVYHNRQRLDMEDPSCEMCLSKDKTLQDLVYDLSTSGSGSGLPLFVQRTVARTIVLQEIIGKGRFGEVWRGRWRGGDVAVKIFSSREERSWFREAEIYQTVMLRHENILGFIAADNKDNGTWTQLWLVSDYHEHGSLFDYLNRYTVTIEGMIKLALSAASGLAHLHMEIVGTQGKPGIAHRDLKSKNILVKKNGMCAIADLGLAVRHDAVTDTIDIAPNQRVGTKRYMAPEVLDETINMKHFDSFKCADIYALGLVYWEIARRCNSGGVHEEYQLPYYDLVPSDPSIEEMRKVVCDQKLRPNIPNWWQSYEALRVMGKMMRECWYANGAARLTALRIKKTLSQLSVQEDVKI", "in_short": "(§1)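 Selectivity panel (kinome-wide), rilpivirine as test compound. Readout: radiolabel incorporation. ATP = Km of the respective kinase. Ki calculated from IC50 (Cheng–Prusoff).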"}, "ALK6(h)": {"target": "T2, ALK6(h) (Homo sapiens, UniProt O00238)", "T2 construct": "purchased Eurofins (KinaseProfiler)", "T2 sequence (O00238 14-502)": "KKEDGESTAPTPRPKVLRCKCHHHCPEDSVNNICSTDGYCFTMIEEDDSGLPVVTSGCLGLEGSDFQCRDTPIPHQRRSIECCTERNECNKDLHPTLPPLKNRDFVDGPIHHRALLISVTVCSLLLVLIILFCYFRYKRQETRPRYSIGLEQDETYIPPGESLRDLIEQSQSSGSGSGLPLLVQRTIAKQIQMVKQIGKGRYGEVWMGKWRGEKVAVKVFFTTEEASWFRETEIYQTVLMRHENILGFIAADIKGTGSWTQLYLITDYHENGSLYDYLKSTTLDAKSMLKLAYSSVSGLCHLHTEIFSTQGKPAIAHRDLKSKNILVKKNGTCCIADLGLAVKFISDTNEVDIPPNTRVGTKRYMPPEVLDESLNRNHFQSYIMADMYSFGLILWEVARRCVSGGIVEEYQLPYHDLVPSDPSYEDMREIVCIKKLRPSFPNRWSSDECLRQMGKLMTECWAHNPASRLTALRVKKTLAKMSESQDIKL", "in_short": "as §1"}, "Abl(Y253F)(h)": {"target": "T3, Abl(Y253F)(h) (Homo sapiens, UniProt P00519, Y253F)", "T3 construct": "purchased Eurofins (KinaseProfiler)", "in_short": "as §1"}, "B-Raf(h)": {"target": "T4, B-Raf(h) (Homo sapiens, UniProt P15056)", "T4 construct": "purchased Eurofins (KinaseProfiler)", "in_short": "as §1"}, "BrSK2(h)": {"target": "T5, BrSK2(h) (Homo sapiens, UniProt Q8IWQ3)", "T5 construct": "purchased Eurofins (KinaseProfiler)", "in_short": "as §1"}, "CDK5/p25(h)": {"target": "T6, CDK5/p25(h) (Homo sapiens, UniProt Q00535)", "T6 construct": "purchased Eurofins (KinaseProfiler)", "T6 sequence (Q00535 whole entry)": "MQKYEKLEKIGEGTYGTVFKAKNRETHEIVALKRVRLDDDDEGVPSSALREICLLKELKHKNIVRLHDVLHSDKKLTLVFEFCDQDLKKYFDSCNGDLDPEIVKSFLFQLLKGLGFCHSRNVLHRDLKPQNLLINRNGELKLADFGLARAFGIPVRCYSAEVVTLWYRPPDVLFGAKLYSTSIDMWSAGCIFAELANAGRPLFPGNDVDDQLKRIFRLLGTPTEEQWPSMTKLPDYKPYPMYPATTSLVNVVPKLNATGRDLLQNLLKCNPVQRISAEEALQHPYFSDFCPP", "T6 sequence (Q15078 99-307 partner limits assumed)": "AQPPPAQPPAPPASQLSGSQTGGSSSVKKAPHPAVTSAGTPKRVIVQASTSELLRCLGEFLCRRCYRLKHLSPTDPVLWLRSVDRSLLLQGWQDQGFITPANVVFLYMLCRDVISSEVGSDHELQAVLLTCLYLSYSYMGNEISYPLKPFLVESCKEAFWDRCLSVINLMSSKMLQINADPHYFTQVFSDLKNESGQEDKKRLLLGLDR", "in_short": "as §1"}, "CHK2(R145W)(h)": {"target": "T7, CHK2(R145W)(h) (Homo sapiens, UniProt O96017, R145W)", "T7 construct": "purchased Eurofins (KinaseProfiler)", "T7 sequence (O96017 whole entry R145W)": "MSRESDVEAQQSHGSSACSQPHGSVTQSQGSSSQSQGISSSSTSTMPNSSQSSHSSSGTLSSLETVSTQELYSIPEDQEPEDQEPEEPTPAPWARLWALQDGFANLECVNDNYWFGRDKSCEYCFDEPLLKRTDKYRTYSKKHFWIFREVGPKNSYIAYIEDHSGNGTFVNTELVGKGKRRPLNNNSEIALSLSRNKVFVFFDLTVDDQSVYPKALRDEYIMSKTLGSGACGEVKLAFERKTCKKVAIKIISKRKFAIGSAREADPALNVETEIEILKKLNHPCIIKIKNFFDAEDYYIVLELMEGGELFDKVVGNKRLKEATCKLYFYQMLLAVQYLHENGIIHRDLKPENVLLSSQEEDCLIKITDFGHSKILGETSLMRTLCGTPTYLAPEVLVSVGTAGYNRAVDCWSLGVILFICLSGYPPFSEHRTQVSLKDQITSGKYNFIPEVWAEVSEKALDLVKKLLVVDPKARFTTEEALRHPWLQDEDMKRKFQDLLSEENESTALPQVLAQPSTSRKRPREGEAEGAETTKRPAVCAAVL", "in_short": "as §1"}, "CK2(h)": {"target": "T8, CK2(h) (Homo sapiens, UniProt P68400)", "T8 construct": "purchased Eurofins (KinaseProfiler)", "in_short": "as §1"}, "CLK2(h)": {"target": "T9, CLK2(h) (Homo sapiens, UniProt P49760)", "T9 construct": "purchased Eurofins (KinaseProfiler)", "in_short": "as §1"}, "CaMKIV(h)": {"target": "T10, CaMKIV(h) (Homo sapiens, UniProt Q16566)", "T10 construct": "purchased Eurofins (KinaseProfiler)", "in_short": "as §1"}, "EphA4(h)": {"target": "T11, EphA4(h) (Homo sapiens, UniProt P54764)", "T11 construct": "purchased Eurofins (KinaseProfiler)", "T11 sequence (P54764 20-986)": "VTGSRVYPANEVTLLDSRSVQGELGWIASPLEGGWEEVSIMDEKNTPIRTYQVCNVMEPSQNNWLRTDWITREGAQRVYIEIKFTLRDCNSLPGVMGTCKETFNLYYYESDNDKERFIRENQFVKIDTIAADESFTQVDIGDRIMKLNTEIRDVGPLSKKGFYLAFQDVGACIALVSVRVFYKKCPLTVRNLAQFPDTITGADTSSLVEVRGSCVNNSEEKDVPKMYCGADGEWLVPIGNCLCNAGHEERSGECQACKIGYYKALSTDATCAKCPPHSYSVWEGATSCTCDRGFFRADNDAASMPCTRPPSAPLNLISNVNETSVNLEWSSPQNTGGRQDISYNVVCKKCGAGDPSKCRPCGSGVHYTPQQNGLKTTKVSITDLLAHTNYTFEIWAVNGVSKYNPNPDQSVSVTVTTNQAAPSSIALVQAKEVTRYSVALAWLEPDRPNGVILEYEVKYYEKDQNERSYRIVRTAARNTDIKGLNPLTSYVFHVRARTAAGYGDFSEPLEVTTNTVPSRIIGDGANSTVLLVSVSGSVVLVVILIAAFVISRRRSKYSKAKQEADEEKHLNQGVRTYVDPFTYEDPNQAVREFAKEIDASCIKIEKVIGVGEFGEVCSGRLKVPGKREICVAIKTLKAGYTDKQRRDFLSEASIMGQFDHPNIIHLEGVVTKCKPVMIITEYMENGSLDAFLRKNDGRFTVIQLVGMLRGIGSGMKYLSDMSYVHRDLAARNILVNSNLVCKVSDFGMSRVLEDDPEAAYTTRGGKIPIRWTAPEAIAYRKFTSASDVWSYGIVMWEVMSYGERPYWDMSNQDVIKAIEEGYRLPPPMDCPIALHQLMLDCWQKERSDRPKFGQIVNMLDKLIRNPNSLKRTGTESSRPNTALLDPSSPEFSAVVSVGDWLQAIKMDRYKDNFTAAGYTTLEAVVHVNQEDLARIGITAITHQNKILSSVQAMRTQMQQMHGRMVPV", "in_short": "as §1"}, "EphB1(h)": {"target": "T12, EphB1(h) (Homo sapiens, UniProt P54762)", "T12 construct": "purchased Eurofins (KinaseProfiler)", "in_short": "as §1"}, "Flt3(D835Y)(h)": {"target": "T13, Flt3(D835Y)(h) (Homo sapiens, UniProt P36888, D835Y)", "T13 construct": "purchased Eurofins (KinaseProfiler)", "in_short": "as §1"}, "GCN2(h)": {"target": "T14, GCN2(h) (Homo sapiens, UniProt Q9P2K8)", "T14 construct": "purchased Eurofins (KinaseProfiler)", "in_short": "as §1"}, "GRK2(h)": {"target": "T15, GRK2(h) (Homo sapiens, UniProt P25098)", "T15 construct": "purchased Eurofins (KinaseProfiler)", "in_short": "as §1"}, "GRK7(h)": {"target": "T16, GRK7(h) (Homo sapiens, UniProt Q8WTQ7)", "T16 construct": "purchased Eurofins (KinaseProfiler)", "in_short": "as §1"}, "JNK2α2(h)": {"target": "T17, JNK2α2(h) (Homo sapiens, UniProt P45984)", "T17 construct": "purchased Eurofins (KinaseProfiler)", "in_short": "as §1"}, "LATS2(h)": {"target": "T18, LATS2(h) (Homo sapiens, UniProt Q9NRM7)", "T18 construct": "purchased Eurofins (KinaseProfiler)", "in_short": "as §1"}, "LIMK2(h)": {"target": "T19, LIMK2(h) (Homo sapiens, UniProt P53671)", "T19 construct": "purchased Eurofins (KinaseProfiler)", "in_short": "as §1"}, "MARK4(h)": {"target": "T20, MARK4(h) (Homo sapiens, UniProt Q96L34)", "T20 construct": "purchased Eurofins (KinaseProfiler)", "in_short": "as §1"}, "MLCK(h)": {"target": "T21, MLCK(h) (Homo sapiens, UniProt Q15746)", "T21 construct": "purchased Eurofins (KinaseProfiler)", "in_short": "as §1"}, "Mer(h)": {"target": "T22, Mer(h) (Homo sapiens, UniProt Q12866)", "T22 construct": "purchased Eurofins (KinaseProfiler)", "T22 sequence (Q12866 21-999)": "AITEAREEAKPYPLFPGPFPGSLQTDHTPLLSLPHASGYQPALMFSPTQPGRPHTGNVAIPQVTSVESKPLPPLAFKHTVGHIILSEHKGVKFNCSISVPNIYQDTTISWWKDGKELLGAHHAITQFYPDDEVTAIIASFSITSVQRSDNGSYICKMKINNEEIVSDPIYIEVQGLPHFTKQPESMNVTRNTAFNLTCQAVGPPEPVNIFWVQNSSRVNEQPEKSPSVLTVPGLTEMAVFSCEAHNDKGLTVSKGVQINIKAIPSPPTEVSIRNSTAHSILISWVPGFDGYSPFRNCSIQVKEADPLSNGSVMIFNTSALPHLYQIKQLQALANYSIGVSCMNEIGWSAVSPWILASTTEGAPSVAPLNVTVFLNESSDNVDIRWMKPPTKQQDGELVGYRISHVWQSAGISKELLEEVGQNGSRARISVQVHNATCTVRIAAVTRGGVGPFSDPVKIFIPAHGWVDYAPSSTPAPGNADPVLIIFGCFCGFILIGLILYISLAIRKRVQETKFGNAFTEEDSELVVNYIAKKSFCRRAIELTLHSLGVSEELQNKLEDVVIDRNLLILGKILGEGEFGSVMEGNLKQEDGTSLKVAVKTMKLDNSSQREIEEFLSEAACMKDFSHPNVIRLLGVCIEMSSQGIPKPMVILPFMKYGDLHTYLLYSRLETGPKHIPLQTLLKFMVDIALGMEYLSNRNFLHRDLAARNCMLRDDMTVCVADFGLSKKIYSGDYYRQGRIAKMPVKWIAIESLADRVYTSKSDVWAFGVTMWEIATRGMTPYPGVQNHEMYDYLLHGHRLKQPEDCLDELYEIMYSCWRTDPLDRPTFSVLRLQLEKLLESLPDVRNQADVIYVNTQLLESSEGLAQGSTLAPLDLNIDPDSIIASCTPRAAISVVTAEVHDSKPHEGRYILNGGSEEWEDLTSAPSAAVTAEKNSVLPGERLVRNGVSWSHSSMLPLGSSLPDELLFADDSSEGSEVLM", "in_short": "as §1"}, "NEK7(h)": {"target": "T23, NEK7(h) (Homo sapiens, UniProt Q8TDX7)", "T23 construct": "purchased Eurofins (KinaseProfiler)", "in_short": "as §1"}, "PDGFRα(h)": {"target": "T24, PDGFRα(h) (Homo sapiens, UniProt P16234)", "T24 construct": "purchased Eurofins (KinaseProfiler)", "in_short": "as §1"}, "PDGFRβ(h)": {"target": "T25, PDGFRβ(h) (Homo sapiens, UniProt P09619)", "T25 construct": "purchased Eurofins (KinaseProfiler)", "in_short": "as §1"}, "PDHK2(h)": {"target": "T26, PDHK2(h) (Homo sapiens, UniProt Q15119)", "T26 construct": "purchased Eurofins (KinaseProfiler)", "in_short": "as §1"}, "[1]": {"target": "PI3 Kinase (p110a/p85a)(h) (Homo sapiens, UniProt P42336)", "in_short": "as §1"}, "PKBα(h)": {"target": "T27, PKBα(h) (Homo sapiens, UniProt P31749)", "T27 construct": "purchased Eurofins (KinaseProfiler)", "in_short": "as §1"}, "PKCι(h)": {"target": "T28, PKCι(h) (Homo sapiens, UniProt P41743)", "T28 construct": "purchased Eurofins (KinaseProfiler)", "in_short": "as §1"}, "PRK1(h)": {"target": "T29, PRK1(h) (Homo sapiens, UniProt Q16512)", "T29 construct": "purchased Eurofins (KinaseProfiler)", "in_short": "as §1"}, "Pyk2(h)": {"target": "T30, Pyk2(h) (Homo sapiens, UniProt Q14289)", "T30 construct": "purchased Eurofins (KinaseProfiler)", "in_short": "as §1"}, "STK25(h)": {"target": "T31, STK25(h) (Homo sapiens, UniProt O00506)", "T31 construct": "purchased Eurofins (KinaseProfiler)", "in_short": "as §1"}, "STK39(h)": {"target": "T32, STK39(h) (Homo sapiens, UniProt Q9UEW8)", "T32 construct": "purchased Eurofins (KinaseProfiler)", "in_short": "as §1"}, "Tie2 (h)": {"target": "T33, Tie2 (h) (Homo sapiens, UniProt Q02763)", "T33 construct": "purchased Eurofins (KinaseProfiler)", "in_short": "as §1"}, "WNK1(h)": {"target": "T34, WNK1(h) (Homo sapiens, UniProt Q9H4A3)", "T34 construct": "purchased Eurofins (KinaseProfiler)", "in_short": "as §1"}, "WNK4(h)": {"target": "T35, WNK4(h) (Homo sapiens, UniProt Q96J92)", "T35 construct": "purchased Eurofins (KinaseProfiler)", "in_short": "as §1"}, "Wee1(h)": {"target": "T36, Wee1(h) (Homo sapiens, UniProt P30291)", "T36 construct": "purchased Eurofins (KinaseProfiler)", "in_short": "as §1"}, "cKit(D816H)(h)": {"target": "T37, cKit(D816H)(h) (Homo sapiens, UniProt P10721, D816H)", "T37 construct": "purchased Eurofins (KinaseProfiler)", "T37 sequence (P10721 26-976 D816H)": "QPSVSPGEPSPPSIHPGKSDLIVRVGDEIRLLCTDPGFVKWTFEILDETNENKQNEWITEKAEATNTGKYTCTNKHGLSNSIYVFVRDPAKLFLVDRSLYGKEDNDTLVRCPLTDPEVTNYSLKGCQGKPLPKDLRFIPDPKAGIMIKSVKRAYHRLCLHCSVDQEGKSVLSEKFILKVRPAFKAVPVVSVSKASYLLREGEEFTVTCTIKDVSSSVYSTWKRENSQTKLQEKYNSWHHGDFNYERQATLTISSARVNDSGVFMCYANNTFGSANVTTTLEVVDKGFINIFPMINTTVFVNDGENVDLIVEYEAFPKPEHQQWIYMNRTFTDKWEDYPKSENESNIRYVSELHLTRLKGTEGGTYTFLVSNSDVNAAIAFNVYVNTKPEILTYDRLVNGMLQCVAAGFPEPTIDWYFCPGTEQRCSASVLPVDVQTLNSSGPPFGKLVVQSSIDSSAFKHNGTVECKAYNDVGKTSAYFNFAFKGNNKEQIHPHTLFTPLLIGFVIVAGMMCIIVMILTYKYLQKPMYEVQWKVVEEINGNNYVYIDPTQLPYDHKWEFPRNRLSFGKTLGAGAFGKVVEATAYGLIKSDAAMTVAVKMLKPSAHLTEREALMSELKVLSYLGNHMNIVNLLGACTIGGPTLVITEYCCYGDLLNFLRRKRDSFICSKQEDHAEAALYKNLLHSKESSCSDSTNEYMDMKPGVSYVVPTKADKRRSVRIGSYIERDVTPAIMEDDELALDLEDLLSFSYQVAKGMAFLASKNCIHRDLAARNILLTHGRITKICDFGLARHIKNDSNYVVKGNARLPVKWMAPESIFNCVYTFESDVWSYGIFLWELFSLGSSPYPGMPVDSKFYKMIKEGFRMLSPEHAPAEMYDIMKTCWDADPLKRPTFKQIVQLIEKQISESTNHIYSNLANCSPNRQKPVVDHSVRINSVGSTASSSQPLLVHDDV", "in_short": "as §1"}},
  "data": [
    {"smiles": "Cc1cc(/C=C/C#N)cc(C)c1Nc1ccnc(Nc2ccc(C#N)cc2)n1", "note": "[rilpivirine, (E)-4-((4-((4-(2-cyanoethenyl)-2,6-dimethylphenyl)amino)pyrimidin-2-yl)amino)benzonitrile]", "values": [
      {"measurement": "remaining activity at 1 µM", "setting": "ALK4(h)", "result": 79, "unit": "%"},
      {"measurement": "remaining activity at 1 µM", "setting": "ALK6(h)", "result": 83, "unit": "%"},
      {"measurement": "remaining activity at 1 µM", "setting": "Abl(Y253F)(h)", "result": 58, "unit": "%"},
      {"measurement": "remaining activity at 1 µM", "setting": "B-Raf(h)", "result": 80, "unit": "%"},
      {"measurement": "remaining activity at 1 µM", "setting": "BrSK2(h)", "result": 80, "unit": "%"},
      {"measurement": "remaining activity at 1 µM", "setting": "CDK5/p25(h)", "result": 97, "unit": "%"},
      {"measurement": "remaining activity at 1 µM", "setting": "CHK2(R145W)(h)", "result": 76, "unit": "%"},
      {"measurement": "remaining activity at 1 µM", "setting": "CK2(h)", "result": 90, "unit": "%"},
      {"measurement": "remaining activity at 1 µM", "setting": "CLK2(h)", "result": 60, "unit": "%"},
      {"measurement": "remaining activity at 1 µM", "setting": "CaMKIV(h)", "result": 81, "unit": "%"},
      {"measurement": "remaining activity at 1 µM", "setting": "EphA4(h)", "result": 93, "unit": "%"},
      {"measurement": "remaining activity at 1 µM", "setting": "EphB1(h)", "result": 94, "unit": "%"},
      {"measurement": "remaining activity at 1 µM", "setting": "Flt3(D835Y)(h)", "result": 94, "unit": "%"},
      {"measurement": "remaining activity at 1 µM", "setting": "GCN2(h)", "result": 93, "unit": "%"},
      {"measurement": "remaining activity at 1 µM", "setting": "GRK2(h)", "result": 81, "unit": "%"},
      {"measurement": "remaining activity at 1 µM", "setting": "GRK7(h)", "result": 70, "unit": "%"},
      {"measurement": "remaining activity at 1 µM", "setting": "JNK2α2(h)", "result": 85, "unit": "%"},
      {"measurement": "remaining activity at 1 µM", "setting": "LATS2(h)", "result": 80, "unit": "%"},
      {"measurement": "remaining activity at 1 µM", "setting": "LIMK2(h)", "result": 71, "unit": "%"},
      {"measurement": "remaining activity at 1 µM", "setting": "MARK4(h)", "result": 88, "unit": "%"},
      {"measurement": "remaining activity at 1 µM", "setting": "MLCK(h)", "result": 95, "unit": "%"},
      {"measurement": "remaining activity at 1 µM", "setting": "Mer(h)", "result": 74, "unit": "%"},
      {"measurement": "remaining activity at 1 µM", "setting": "NEK7(h)", "result": 110, "unit": "%"},
      {"measurement": "remaining activity at 1 µM", "setting": "PDGFRα(h)", "result": 96, "unit": "%"},
      {"measurement": "remaining activity at 1 µM", "setting": "PDGFRβ(h)", "result": 93, "unit": "%"},
      {"measurement": "remaining activity at 1 µM", "setting": "PDHK2(h)", "result": 90, "unit": "%"},
      {"measurement": "remaining activity at 1 µM", "setting": "[1]", "result": 98, "unit": "%"},
      {"measurement": "remaining activity at 1 µM", "setting": "PKBα(h)", "result": 80, "unit": "%"},
      {"measurement": "remaining activity at 1 µM", "setting": "PKCι(h)", "result": 99, "unit": "%"},
      {"measurement": "remaining activity at 1 µM", "setting": "PRK1(h)", "result": 64, "unit": "%"},
      {"measurement": "remaining activity at 1 µM", "setting": "Pyk2(h)", "result": 81, "unit": "%"},
      {"measurement": "remaining activity at 1 µM", "setting": "STK25(h)", "result": 95, "unit": "%"},
      {"measurement": "remaining activity at 1 µM", "setting": "STK39(h)", "result": 95, "unit": "%"},
      {"measurement": "remaining activity at 1 µM", "setting": "Tie2 (h)", "result": 93, "unit": "%"},
      {"measurement": "remaining activity at 1 µM", "setting": "WNK1(h)", "result": 95, "unit": "%"},
      {"measurement": "remaining activity at 1 µM", "setting": "WNK4(h)", "result": 113, "unit": "%"},
      {"measurement": "remaining activity at 1 µM", "setting": "Wee1(h)", "result": 90, "unit": "%"},
      {"measurement": "remaining activity at 1 µM", "setting": "cKit(D816H)(h)", "result": 89, "unit": "%"}
    ]}
  ]
}
